How the values were obtained:
[1] = tested on: hES cells on LN-521; assay: Inhibition of survival assay on LN-521; format: cell-based, human; settings: medium contained bFGF, FIG. 16
Source text: InSolution™ LY 294002 (a specific Akt inhibitor), InSolution™ Wortmannin (a specific PI3K inhibitor), and InSolution™ 98059 (a specific MEK1/Erk inhibitor) were purchased from Calbiochem. Antibodies to phospho-Akt (#4060), total-Akt (#9272), phospho-Erk (#9101), and total-Erk (#9102) were obtained from Cell Signaling Technology. PathScan Phospho-Akt1 sandwich ELISA kit (#7160), PathScan total Akt1 sandwich ELISA kit (#7170), PathScan Phospho-Akt2 sandwich ELISA kit (#7048), and PathScan total Akt2 sandwich ELISA kit (#7046) were also purchased from Cell Signaling Technology. Antibodies to Calnexin (#ab10286) were obtained from Abcam. Function blocking antibodies to various integrin subunits, mouse isotype antibodies, and α-dystroglycan were purchased from Millipore. Since function blocking antibodies to αV (MAB1980) and α6 (MAB1378) were presented in a solution with sodium azide, before the inhibition of survival experiment all the antibodies to alpha integrin subunits were dialyzed thrice against O3 medium for 2 hours each time. Antibodies to Lutheran receptor and α-fetoprotein, as well as rat isotype control antibodies were obtained from R&D Systems. Antibodies to Oct4, Nanog, SSEA-4, smooth muscle actin and MAP-2 were purchased from Millipore. […]

[2] = tested on: hES cells; assay: Cell survival assay, 24 hours (Example 2); format: cell-based, human; settings: for survival of hES cells 24 hours after plating from single cell suspension: O3 medium, absence of ROCK inhibitor; for survival of dissociated hES cells after 24 hours: quantified survival assay
Description: (§1) Briefly, 96-well plates were coated by extracellular matrix proteins as described above and blocked by O3 medium containing bovine serum albumin. The ES cells were plated at cell density of 50,000 cells/cm^2 onto extracellular matrix-coated plates and left to adhere for 1 hour in a cell incubator. After that the plates were washed 3 times with the medium to remove the non-adherent cells, and then the adherent cells were fixed for 20 minutes by 5% glutaraldehyde, stained by 0.1% Crystal Violet. (Kebo Lab, Spanga, Sweden, http://www.kebolab.se). After one hour and 3 washes with water, Crystal Violet was extracted with 10% acetic acid and quantified by measuring optical density at 570 nm. All the experiments were performed in quadruplicate.
The survival assay was performed as described for the cell adhesion assay above, except that the cells were left in the cell incubator for 24 hours. For inhibition of survival assay, the cells were kept in a medium with function blocking antibodies at the concentrations recommended by the manufacturer or pathway inhibitors at concentrations indicated in the text for 30 minutes, and then plated on the coated dishes. All the experiments were performed in quadruplicate.
Pluripotent hES cells express α1, α5, β1, β2 and γ1 laminin chains. To compare the adhesion and clonal survival of hES cells plated from single cell suspension to different coating substrata, hES cells growing as monolayers on LN-511 or as clusters on a feeder layer were trypsinized into single cell suspension in O3 medium and plated on cell culture dishes coated with Matrigel, LN-111, LN-511, LN-521 or a mixture of LN-511 and LN-521, in the absence or presence of a ROCK inhibitor (Y-27632) and analyzed after 24 hours.

[3] = tested on: human ES cells (HS181); assay: Cell adhesion assay, Crystal Violet (Example 1); format: cell-based; settings: for cells remaining attached / surviving 24 hours after plating: HS181 completely dissociated, FIG. 4
Description: Ninety-six-well tissue cell culture plates were coated overnight at 4° C. with sterile solutions of the ECM proteins mouse LN-111 (Invitrogen), human recombinant LN-511, and human recombinant LN-521, all at a concentration of 30 μg/ml (5 μg/cm^2). For control cells, BD Matrigel™ hESC qualified (BD Biosciences) was used according to the manufacturer's instructions.
The assay was performed as described (Extracellular Matrix Protocols, 2000). Briefly, 96-well plates were coated by extracellular matrix proteins as described above and blocked by O3 medium containing bovine serum albumin. The ES cells were plated at a cell density of 600 cell/mm^2 upon extracellular matrix-coated plates and were left to adhere for either 1 hour or 1 day at the cell incubator. Non-adherent cells were washed away, and adherent cells were fixed for 20 min by 5% glutaraldehyde, stained by 0.1% Crystal Violet.

[4] = biological target: Integrin α6β1 (Homo sapiens, UniProt P05556+P23229); settings: cited from earlier work
[5] = tested on: myosin light chain (MLC); assay: Western blot of phosphorylated myosin light chain; format: cell-based, human; settings: one and six hours after plating, FIG. 12 and 13
Description: HS 181 cells were trypsinized into single cell suspension as described above. For inhibition experiments, the cells were kept in O3 medium with blocking antibodies or pathway inhibitors for 30 minutes and then 450K cells were plated on 35 mm dishes precoated with the appropriate matrix coating. For other experiments, same number of cells was plated directly after trypsinization. […] After two washings in ice-cold PBS, the plates with cells were snap frozen in liquid nitrogen and stored at −80° C. To prepare samples for western blots and ELISA, the plates were slowly thawed and kept on ice with 100-150 μl of lysis buffer (50 mM Tris-HCl, pH7.5, 150 mM NaCl, 0.5% deoxycholate, 0.5% SDS, 1% Triton X-100, 1% Igepal, Complete™ (Roche) and Phospho-Stop™ (Roche)) on top. Then, the cells were scraped, pipetted and sheared through a 27 G ¾″ needle. After that, the cell pellets were clarified by centrifugation at 16,100 rcf for 15 minutes at 4° C. For western blots, 4-12% gradient gels were used for SDS electrophoresis and the proteins were transferred to PVDF membranes. The membrane was hybridized with the antibody of interest according to the manufacturer's instructions. […] For the densitometry analysis the films were scanned at 2,400 dpi and analyzed by the Chemilmager5500 program (1 D-Multi Line densitometry mode). […]

[6] = tested on: hES cells; assay: Cell adhesion assay, 1 hour (Example 2); format: cell-based, human; settings: compared with Matrigel or LN-111, not shown
Description: Tissue cell culture plates were coated overnight at 4° C. with sterile solutions of the ECM proteins, such as human recombinant LN-521, all at a concentration of 30 μg/ml (5 μg/cm^2). Control plates were coated with Matrigel according to the STEMCELL Technologies' instructions. Prior to use, dishes were pre-warmed in an incubator for one hour after which prewarmed O3 medium was added without additional washing of the dish. After applying a fresh LN-521 solution to a new dish, the remaining LN-521 solution could be used at least once more. All the adhesion, survival, and inhibition of survival experiments were carried out using fresh coating materials.
as §1

[7] = tested on: human embryonic stem cells; assay: Survival of hES cells plated in single cell suspension on precoated dishes (description); format: cell-based; settings: O3 medium, 30 Kcells/cm^2
Source text: In other aspects, the present disclosure provides a new material, isolated laminin-521, which permits human embryonic stem cell survival after dissociation into single cell suspension. The stem cells were dissociated into single cell suspension by Trypsin-EDTA treatment, pelleted by centrifugation, resuspended into O3 medium, filtered through a 40 μm sieve, and plated at a density of 30 Kcells/cm^2 on cell culture dishes precoated by either isolated laminin-521, laminin-511, or Matrigel. After one day in culture, the cells plated on Matrigel died, as is known in the art.

[8] = tested on: Human ES cells; settings: over 3 months; engraftment into SCID mice; cited from earlier work
[9] = tested on: hES cells; assay: Clonal survival of individualized hES cells, alkaline phosphatase staining (Example 4); format: cell-based, human
Description: hES cells were plated in mTeSR1 medium on different coatings at a density of 250 cells per cm^2 and monitored after 5 days in culture using an alkaline phosphatase staining kit.
Next, combinations of laminin-521 and E-Cadherin were tested to determine whether the combinations could sustain clonal survival of the cells. Fixed amounts of laminin-521 were used for the cell culture dish coating in combination with titrated E-Cadherin.
Additional tests were performed to test the effects of various modifications to the mTeSR1 medium. A mixture of E-Cadherin to laminin-521 in a ratio of about 1:10 w/w was used to coat the plates. […] Time-lapse photography of the cells confirmed that laminin-521/E-Cadherin coatings facilitated cell survival through proliferation of the single cells, not through the aggregation of different cells.

[10] = O3 medium without any additives

Integrin α6β1, sequence (P23229 24-1130): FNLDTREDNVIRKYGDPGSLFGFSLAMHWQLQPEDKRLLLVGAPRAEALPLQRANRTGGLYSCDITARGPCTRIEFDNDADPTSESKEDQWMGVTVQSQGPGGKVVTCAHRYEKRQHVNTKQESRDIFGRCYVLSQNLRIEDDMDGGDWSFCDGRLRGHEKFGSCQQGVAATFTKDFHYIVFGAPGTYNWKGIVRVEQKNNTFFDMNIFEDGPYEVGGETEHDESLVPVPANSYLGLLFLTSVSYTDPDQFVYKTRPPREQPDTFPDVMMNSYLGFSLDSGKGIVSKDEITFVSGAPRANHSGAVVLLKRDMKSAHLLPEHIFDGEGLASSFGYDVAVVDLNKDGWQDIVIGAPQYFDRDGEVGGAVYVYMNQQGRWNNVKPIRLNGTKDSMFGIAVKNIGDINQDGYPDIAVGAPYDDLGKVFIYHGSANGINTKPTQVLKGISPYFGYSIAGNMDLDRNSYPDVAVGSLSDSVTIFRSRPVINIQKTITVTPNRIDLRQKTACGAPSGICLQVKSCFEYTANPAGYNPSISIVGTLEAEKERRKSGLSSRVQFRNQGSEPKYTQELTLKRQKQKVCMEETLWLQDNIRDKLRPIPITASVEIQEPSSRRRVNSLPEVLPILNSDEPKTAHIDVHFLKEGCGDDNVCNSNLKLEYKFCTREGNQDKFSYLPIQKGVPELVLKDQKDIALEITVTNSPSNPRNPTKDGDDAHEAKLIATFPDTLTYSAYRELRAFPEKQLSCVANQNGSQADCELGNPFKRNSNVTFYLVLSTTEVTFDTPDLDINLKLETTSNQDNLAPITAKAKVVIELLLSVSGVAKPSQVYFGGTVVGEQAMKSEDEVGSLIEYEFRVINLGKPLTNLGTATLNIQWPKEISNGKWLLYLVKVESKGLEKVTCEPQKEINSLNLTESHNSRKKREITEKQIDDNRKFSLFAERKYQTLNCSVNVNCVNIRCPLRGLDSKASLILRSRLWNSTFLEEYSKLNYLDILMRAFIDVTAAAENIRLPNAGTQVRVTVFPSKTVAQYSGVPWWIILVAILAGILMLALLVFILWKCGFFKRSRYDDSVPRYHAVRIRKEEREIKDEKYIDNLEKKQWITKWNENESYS
Integrin α6β1, sequence (P05556 21-798): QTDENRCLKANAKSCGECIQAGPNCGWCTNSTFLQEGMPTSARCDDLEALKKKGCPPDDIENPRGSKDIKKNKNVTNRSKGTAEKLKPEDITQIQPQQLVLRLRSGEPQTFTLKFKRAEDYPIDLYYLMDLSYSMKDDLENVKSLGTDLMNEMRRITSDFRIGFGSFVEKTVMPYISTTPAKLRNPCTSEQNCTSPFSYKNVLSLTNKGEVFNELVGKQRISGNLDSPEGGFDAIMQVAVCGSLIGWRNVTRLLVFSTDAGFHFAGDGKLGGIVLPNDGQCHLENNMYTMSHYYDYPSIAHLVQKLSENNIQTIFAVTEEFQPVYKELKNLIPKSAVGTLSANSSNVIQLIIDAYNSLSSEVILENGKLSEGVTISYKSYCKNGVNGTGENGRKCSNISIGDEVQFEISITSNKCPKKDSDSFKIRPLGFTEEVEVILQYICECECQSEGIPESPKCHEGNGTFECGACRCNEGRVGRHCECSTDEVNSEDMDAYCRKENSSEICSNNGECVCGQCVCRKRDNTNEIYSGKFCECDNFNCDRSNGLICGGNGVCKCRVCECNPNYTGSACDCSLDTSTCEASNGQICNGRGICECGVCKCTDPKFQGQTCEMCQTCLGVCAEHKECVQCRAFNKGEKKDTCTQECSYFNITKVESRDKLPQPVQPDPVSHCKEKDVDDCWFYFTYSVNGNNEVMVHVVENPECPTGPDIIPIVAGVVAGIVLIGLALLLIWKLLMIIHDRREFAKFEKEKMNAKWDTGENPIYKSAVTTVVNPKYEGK

COc1cccc(-c2cc(=O)c3ccccc3o2)c1N [PD 98059]
hES cell survival 24 hours after plating on LN-521 with pathway inhibitor [1]: did not affect the survival that severely

C[C@@H](N)[C@H]1CC[C@H](C(=O)Nc2ccncc2)CC1 [Y-27632, reference compound]
survival of hES cells 24 hours after plating in the presence of ROCK inhibitor ([2]; Y-27632, all coatings): survived on all surfaces | cells remaining attached after one day with ROCK inhibitor ([3]; O3 medium treated with Y-27632, five coatings, FIG. 5): remained attached on all 5 coatings

LN-111: mouse laminin-111 (Invitrogen), indicated as LN-111 if not otherwise stated
survival of hES cells 24 hours after plating from single cell suspension [2]: did not survive | survival of dissociated hES cells after 24 hours [2]: almost no cells had survived | cells remaining attached / surviving 24 hours after plating [3, 10]: almost no cells remained attached

LN-121: human recombinant laminin of α1, β2 and γ1 chains from triple-transfected HEK293 cells
survival of hES cells 24 hours after plating from single cell suspension [2]: failed to survive

LN-511: human recombinant laminin-511, control coating
binding affinity of integrin α6β1 compared with LN-111 [4]: higher than that for LN-111 | phosphorylation of MLC compared with cells on Matrigel and LN-111 [5]: even higher | survival of hES cells 24 hours after plating from single cell suspension [2]: did so as single cells | survival of dissociated hES cells after 24 hours [2]: very few | spreading of the cells after one hour [6]: clearly better | survival of human embryonic stem cells after one day in culture [7]: in most cases on laminin-511 survived | cells remaining attached / surviving 24 hours after plating [3, 10]: at a less extent | adhesion of human ES cells at 1 hour ([3]; O3 medium without any additives, without Y-27632, FIG. 6): roughly the same | pluripotency of human ES cells in long-term culture [8]: maintain pluripotency and can generate teratomas

albumin: albumin of the mTeSR1 medium, concentration increased 2×
effect of 2× increase in albumin concentration on clonal survival ([9]; laminin-521/E-Cadherin matrix, mTeSR1): significantly improved clonal survival

human recombinant LN-111: human recombinant laminin of α1, β1 and γ1 chains from triple-transfected HEK293 cells
survival of hES cells 24 hours after plating from single cell suspension [2]: failed to survive

B1: E-Cadherin: epithelial-cadherin, most abundant cadherin isoform on the human ES cell surface; coating protein (protein, UniProt P12830 155-882, looked up)
Cadherin-1: DWVIPPISCPENEKGPFPKNLVQIKSNKDKEGKVFYSITGQGADTPPVGVFIIERETGWLKVTEPLDRERIATYTLFSHAVSSNGNAVEDPMEILITVTDQNDNKPEFTQEVFKGSVMEGALPGTSVMEVTATDADDDVNTYNAAIAYTILSQDPELPDKNMFTINRNTGVISVVTTGLDRESFPTYTLVVQAADLQGEGLSTTATAVITVTDTNDNPPIFNPTTYKGQVPENEANVVITTLKVTDADAPNTPAWEAVYTILNDDGGQFVVTTNPVNNDGILKTAKGLDFEAKQQYILHVAVTNVVPFEVSLTTSTATVTVDVLDVNEAPIFVPPEKRVEVSEDFGVGQEITSYTAQEPDTFMEQKITYRIWRDTANWLEINPDTGAISTRAELDREDFEHVKNSTYTALIIATDNGSPVATGTGTLLLILSDVNDNAPIPEPRTIFFCERNPKPQVINIIDADLPPNTSPFTAELTHGASANWTIQYNDPTQESIILKPKMALEVGDYKINLKLMDNQNKDQVTTLEVSVCDCEGAAGVCRKAQPVEAGLQIPAILGILGGILALLILILLLLLFLRRRAVVKEPLLPPEDDTRDNVYYYDEEGGGEEDQDFDLSQLHRGLDARPEVTRNDVAPTLMSVPRYLPRPANPDEIGNFIDENLKAADTDPTAPPYDSLLVFDYEGSGSEAASLSSLNSSESDKDQDYDYLNEWGNRFKKLADMYGGGEDD
clonal survival of individualized hES cells ([9]; mTeSR1, 250 cells per cm^2, 5 days): Neither laminin-521 nor E-Cadherin alone permitted efficient clonal survival
